Data from PubChem BioAssay AID651717 (Broad Institute, 2012).

Tested on: mESC Bmi1-luciferase reporter, firefly/renilla ratio, 24 h
Test: compounds raising Bmi1 reporter signal – mouse embryonic stem cells, luciferase, cherry-pick, esBAF inhibitor project, dose response (AID 651717);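 also: luciferase knocked into Bmi1 locus with EF-1a renilla as cell number control; rising ratio signals esBAF inhibition which derepresses Bmi1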

| Structure (SMILES) | AC40 [µM] |
| --- | --- |
| Cn1c(SCc2c(F)cccc2Cl)nnc1-c1cccs1 | 11.1 |
| COc1ccc(OCc2cc(C(=O)N3C[C@H]4CC[C@H]3C4)no2)c(Cl)c1 | 9.24 |
| O=C(NCCc1ccccc1)c1nccc2ccccc12 | 6.84 |
| COc1ccc(C(=O)Nc2ccc3nc(C)c(C)nc3c2)cc1 | 8.3 |
| ON=C(CCc1ccccc1)c1ccccc1 | 0.977 |
| CO[C@@H]1CN(C)C(=O)c2ccc(NC(=O)Nc3ccc4c(c3)OCO4)cc2OC[C@H](C)NC[C@H]1C | 6.56 |
| COC(=O)C(Cc1c[nH]c2ccccc12)NC(=O)c1ccc2nc[nH]c2c1 (configuration not stated) | 14.7 |
| O=C(O)c1cncc(C#CCC2CCCCC2)c1 | 15.6 |
| Oc1ccccc1/C=N/N1CCN(c2ccccn2)CC1 | 2.75 |
| O=C(COc1ccc(/C=N/NC(=O)c2cc3ccccc3o2)cc1Br)Nc1ccccc1 | 4.24 |
| CCC(C)c1ccc(NC(=O)C2CC2)cc1 (configuration not stated) | 5.85 |
| CCc1c(C)sc(NC(=O)c2cccs2)c1C(N)=O | 2.66 |
| CCC(=O)Nc1cccc(-c2nnc(-c3ccccc3)o2)c1 | 2.83 |
| O=C(c1ccc(Cl)cc1)c1cnc(-c2ccc(Cl)cc2)s1 | 2.84 |
| CCCN1C[C@@H](C)[C@H](OC)CN(C)C(=O)c2cc(NC(=O)c3ccccc3F)ccc2OC[C@H]1C | 5.77 |
| Cc1cc(C)c2c(N)c(C(=O)Nc3ccccc3Br)sc2n1 | 2.16 |
| O=C(c1csc(Nc2ccccc2Cl)n1)N1CCCC1 | 1.07 |
| COc1ccc(-c2ccc3n2Cc2cnnn2-c2ccccc2-3)cc1 | 4.57 |
| CNc1cnc(-c2ccc(F)c(F)c2F)cn1 | 1.54 |
| C=CCSC1=NNC(c2ccc(C(C)(C)C)cc2)=NN1 | 8.49 |
| Cc1ccc(OCc2cc(C(=O)N(C)CCc3ccccn3)no2)cc1C | 2.28 |

| Structure (SMILES) | AC40 [µM] |
| --- | --- |
| C=CCn1c(NCc2ccc(OC)cc2O)nc2ccccc21 | 5.58 |
| CSc1ccc(CNc2ccc(C)c(C)c2)cc1 | 2.83 |
| CN(C)c1ccc(C=Cc2nccc3ccccc23)cc1 | 1.65 |
| CCCc1nc2c3ccccc3ccn2c1Cc1ccc(C)cc1 | 0.443 |
| Cc1ccc(Cl)cc1-c1cc(C(=O)Nc2ccc(F)cc2)[nH]n1 | 4.92 |
| C=CCn1c(=O)c(C(=O)Nc2ccc(C)cc2)c(O)c2ccccc21 | 13.1 |
| COc1cc2ccccc2cc1C(=O)NC1CCCC1 | 8.82 |
| COc1ccc(NC(=O)c2cc(C3CC3)on2)c(OC)c1 | 11.8 |
| CC(=O)N(/N=C1\Sc2ccccc2C1=O)c1ccccc1 | < 0.26 |
| CCCCN(C(=O)CSc1nnc(Nc2ccc(C)c(C)c2)s1)c1c(N)n(Cc2ccccc2)c(=O)[nH]c1=O | 12.4 |
| COC(=O)Cc1csc(Nc2ccccc2Cl)n1 | 6.92 |
| COc1ccc(N2CCN(C(=O)C3Cc4ccccc4CN3C(=O)c3ccccc3)CC2)cc1 (configuration not stated) | 16.5 |
| CCCCCCCSc1ncnc2[nH]ncc12 | 17.1 |
| Cc1csc(NC(=O)Cc2c(F)cccc2Cl)n1 | 8.57 |
| COc1ccccc1CNC(=O)C[C@H]1CC[C@@H]2[C@H](COC[C@H](O)CN2C(=O)Nc2ccc(Cl)cc2)O1 | 14.1 |
| COc1cccc(NC(=O)c2ccc3c(c2)CCN3S(C)(=O)=O)c1 | 7.43 |
| COC(=O)c1ccc2[nH]c(C(C)(C)O)c(C)c2c1 | 1.37 |
| COc1ccc(Cc2nnc(NC(=O)c3ccc(OC)cc3OC)s2)cc1 | 12.5 |
| O=c1c2ccccc2sc2ccccc12 | 2.41 |
| Cc1cc(NC(=O)CC2CCCC2)ccc1Br | 11.8 |
| O=c1c2ccccc2nnn1CSc1nnnn1-c1ccccc1 | 9.13 |

| Structure (SMILES) | AC40 [µM] |
| --- | --- |
| Cn1c(/N=C(\N)c2ccccc2)nc2ccccc21 | 0.587 |
| Cc1ccc(NC(=O)NC(=O)N(c2ccccc2)S(C)(=O)=O)cc1 | 7.14 |
| CCn1c(C)nc2cc(C(=O)NN=Cc3ccccc3OC(F)F)ccc21 | 1.96 |
| CCCCN(Cc1ccccc1)c1ncnc2nc[nH]c12 | 10.1 |
| CCCCSc1nnc(-c2ccc(OC)cc2)n1C | 9.08 |
| CN(C)c1ccc(-c2csc(C(O)c3ccccc3)n2)cc1 (configuration not stated) | 0.311 |
| Cc1cc2oc(=O)cc(CN3CCC(C)CC3)c2cc1Cl | 9.54 |
| COc1ccc(/C=N/NC(=O)Cc2cccs2)cc1 | 8.51 |
| Cc1ccccc1CNC(=O)Nc1ccc(Cl)cc1 | 15.1 |
| Cc1ccc(N=Nc2cc(C)ccc2O)c(C)c1 | 3.74 |
| Fc1ccccc1NC(=S)N1CCC(c2ccccc2)C1 (configuration not stated) | 0.517 |
| O=c1sc(N2CCN(c3ccc(F)cc3)CC2)nc2ccsc12 | 1.76 |
| CCN(CC)c1ccc2cc(C(=O)c3cccs3)c(=O)oc2c1 | 11.6 |
| CCn1cnc2cc(NCc3ccccc3Cl)ccc21 | 3.92 |
| Cc1ccc(C)c(N2CCN(C(=O)CCc3nc(-c4cccc(C(F)(F)F)c4)no3)CC2)c1 | 7.5 |
| N#Cc1ccc(Nc2nc(-c3ccccc3)cs2)cc1 | 3.97 |
| CC1(C)C=Cc2cc(-c3coc4cc(O)cc(O)c4c3=O)cc(O)c2O1 | 4.93 |
| Cc1ccc(O)c(CNc2ccccn2)c1 | 16.7 |
| COc1ccc(-c2cc(C(=O)N3CCCC3)no2)cc1OC | 7.36 |
| Cc1nc(-c2ccccc2)nc2[nH]ccc(=O)c12 | 4.23 |
